The source of these data is patent publication US11753445B2, “Therapeutic peptides” (COHBAR, INC., priority 2016, dated 2023).

The subject of data set [1] is 3T3-L1 Adipocytes. Nature of the data set: Free fatty acid levels in cultured mouse 3T3-L1 adipocytes, isoproterenol stimulated (Example 2). The class given is cell-based. The settings on record: isoproterenol 1 nM; for Free Fatty Acid Levels in 3T3-L1 Adipocytes Expressed as a Percent of Isoproterenol Control: Percent of Control Value: test peptides 25 μM. The method in brief: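 Release of free fatty acids, read at 540 nm, was stimulated with 1 nM isoproterenol for 3 h in mouse 3T3-L1 adipocytes (12–17 days of differentiation). Cells were pre-exposed to 25 μM peptide for 18–20 h plus 1 h, with peptide kept in during stimulation. Values are background-subtracted and normalised to isoproterenol alone.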

The test system of data set [2] is Human Primary Adipocytes. Nature of the data set: Free fatty acid levels in cultured human primary adipocytes, forskolin stimulated (Example 5). The settings on record: forskolin 1 μM; for Free Fatty Acid Levels in Human Primary Adipocytes Expressed as a Percent of Forskolin Control: Percent of Control Value: test peptides 25 μM. The class given is cell-based. An outline of the steps:
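Differentiated human primary adipocytes (14–24 days) were exposed to peptides at 25 μM for 18–20 h and 1 h, then stimulated with 1 μM forskolin plus peptide for 3 h at 37 °C. Medium free fatty acids were measured colorimetrically (540 nm), background-corrected and expressed relative to forskolin-only cells.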

Data set [3] is described as follows: Stability in mouse plasma, peptides 10 uM (Example 15). The class given is in vitro ADME. The settings on record: mouse plasma 37° C., peptide 10 uM; for remaining at 0.25 h, 10 uM / remaining at 0.5 h, 10 uM / remaining at 1 h, 10 uM / remaining at 2 h, 10 uM / remaining at 3 h, 10 uM: pooled mouse plasma; for remaining at 0.25 h, 10 uM: 15 min, read-out: % Remaining at Each Time Point: 15 min; for remaining at 0.5 h, 10 uM: 30 min, read-out: % Remaining at Each Time Point: 30 min; for remaining at 1 h, 10 uM: 60 min, read-out: % Remaining at Each Time Point: 60 min; for remaining at 2 h, 10 uM: 120 min, read-out: % Remaining at Each Time Point: 120 min; for remaining at 3 h, 10 uM: 180 min, read-out: % Remaining at Each Time Point: 180 min. The protocol: Peptides (10 uM) were incubated in pooled mouse plasma at 37° C. and samples were removed and immediately analyzed for the concentration of intact peptide by LC/MS/MS over the course of 3 hours. The percent of peptide remaining in plasma at each time point was calculated relative to the initial peak area (Table 13).

Data set [4] in a line: Stability in monkey plasma (Example 16). As to conditions: Monkey plasma 37° C., peptide 10 uM; for remaining at 1 h, 10 uM: 60 min, read-out: % Remaining at Each Time Point: 60 min; for remaining at 2 h, 10 uM: 120 min, read-out: % Remaining at Each Time Point: 120 min; for remaining at 3 h, 10 uM: 180 min, read-out: % Remaining at Each Time Point: 180 min. The class given is in vitro ADME.

A short description of data set [5]: Stability in human plasma (Example 16). As to conditions: Human plasma 37° C., peptide 10 uM; for remaining at 1 h, 10 uM / remaining at 2 h, 10 uM / remaining at 3 h, 10 uM: pooled human plasma; for remaining at 1 h, 10 uM: 60 min, read-out: % Remaining at Each Time Point: 60 min; for remaining at 2 h, 10 uM: 120 min, read-out: % Remaining at Each Time Point: 120 min; for remaining at 3 h, 10 uM: 180 min, read-out: % Remaining at Each Time Point: 180 min. The class given is in vitro ADME. The protocol:
Peptides (10 uM) were incubated in pooled mouse or human plasma at 37° C. and samples were removed and immediately analyzed for the concentration of intact peptide by LC/MS/MS over the course of 3 hours. The percent of peptide remaining in plasma at each time point was calculated relative to the initial peak area (Table 14).

Data set [6] concerns 3T3-L1 Adipocytes. Nature of the data set: Free fatty acid levels in cultured mouse 3T3-L1 adipocytes, isoproterenol stimulated (Example 17). As to conditions: insulin 100 nM; 3T3-L1 adipocytes; isoproterenol 1 nM. The class given is cell-based. The method in brief:
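Differentiated 3T3-L1 adipocytes (12-17 days) given test peptides at 25-50 μM for 18-20 h, then 3 h with peptides plus 1 nM isoproterenol at 37 °C. Medium free fatty acids read colorimetrically at 540 nm, background-corrected and expressed relative to isoproterenol-only cells.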

Where only a bound is given, the exact number is not on record here.

H-MRWQEMGYIFYPRKLA-OH [compound 21]: the “Free Fatty Acid Levels in 3T3-L1 Adipocytes Expressed as a Percent of Isoproterenol Control: Percent of Control Value” in data set [1] is given as 45.1%. The “Free Fatty Acid Levels in Human Primary Adipocytes Expressed as a Percent of Forskolin Control: Percent of Control Value” in data set [2] was found to be 113%.

H-MRWQEMGYIFYPRKLR-OH [compound 2]: the “Free Fatty Acid Levels in 3T3-L1 Adipocytes Expressed as a Percent of Isoproterenol Control: Percent of Control Value” in data set [1] amounted to 63.3%. Moreover, in data set [2], the “Free Fatty Acid Levels in Human Primary Adipocytes Expressed as a Percent of Forskolin Control: Percent of Control Value” stood at 111%. In data set [3], the “% Remaining at Each Time Point: 0 min” value was determined as 100%; the amount remaining at 0.25 h, 10 uM was found to be 78.3%; the share remaining at 0.5 h, 10 uM is 38.9%; the share remaining at 1 h, 10 uM amounted to 9.6%. In data set [3], the fraction remaining at 2 h, 10 uM is 0.8% and the share remaining at 3 h, 10 uM is 0.4%. In data set [4], the “% Remaining at Each Time Point: 0 min” value is reported as 100%; the fraction remaining at 1 h, 10 uM is 72.8%; the share remaining at 2 h, 10 uM came out at 39.8%; the fraction remaining at 3 h, 10 uM was 23.4%. In data set [5], the “% Remaining at Each Time Point: 0 min” value was 100%; the fraction remaining at 1 h, 10 uM turned out to be 56.3%; the amount remaining at 2 h, 10 uM came out at 44.7%; the share remaining at 3 h, 10 uM is 38.4%.

Regarding H-MRWQEMGYIFYPRNLR-OH [compound 213], in data set [1], the “Free Fatty Acid Levels in 3T3-L1 Adipocytes Expressed as a Percent of Isoproterenol Control: Percent of Control Value” is listed as 48.1%. Further, in data set [2], the “Free Fatty Acid Levels in Human Primary Adipocytes Expressed as a Percent of Forskolin Control: Percent of Control Value” worked out at 90.8%.

Regarding H-MRWQEMNYIFYPR-OH [compound 208], in data set [1], the “Free Fatty Acid Levels in 3T3-L1 Adipocytes Expressed as a Percent of Isoproterenol Control: Percent of Control Value” was determined as 57.9%. For the same substance, the “Free Fatty Acid Levels in Human Primary Adipocytes Expressed as a Percent of Forskolin Control: Percent of Control Value” in data set [2] is recorded as 90.2%. In data set [3], the “% Remaining at Each Time Point: 0 min” value turned out to be 100%; the amount remaining at 0.25 h, 10 uM stood at 77%; the share remaining at 0.5 h, 10 uM came to 51.8%; the fraction remaining at 1 h, 10 uM came out at 21%. Also, in data set [3], the share remaining at 2 h, 10 uM was found to be 3.94% and the fraction remaining at 3 h, 10 uM was 1.09%. In data set [4], the “% Remaining at Each Time Point: 0 min” value is reported as 100%; the amount remaining at 1 h, 10 uM turned out to be 106%; the amount remaining at 2 h, 10 uM stood at 89%; the share remaining at 3 h, 10 uM worked out at 68%. In data set [5], the “% Remaining at Each Time Point: 0 min” value worked out at 100%; the share remaining at 1 h, 10 uM amounted to 105%; the fraction remaining at 2 h, 10 uM was 86.6%; the amount remaining at 3 h, 10 uM was 85.4%.

Regarding H-MRWQEMQYIFYPRALR-OH [compound 219], in data set [1], the “Free Fatty Acid Levels in 3T3-L1 Adipocytes Expressed as a Percent of Isoproterenol Control: Percent of Control Value” is on record as 38.9%. For the same substance, the “Free Fatty Acid Levels in Human Primary Adipocytes Expressed as a Percent of Forskolin Control: Percent of Control Value” in data set [2] is 84.0%.

For the substance H-RWQEMNYIFYPR-OH [compound 210], the “Free Fatty Acid Levels in 3T3-L1 Adipocytes Expressed as a Percent of Isoproterenol Control: Percent of Control Value” in data set [1] was 44.6%. Further, the “Free Fatty Acid Levels in Human Primary Adipocytes Expressed as a Percent of Forskolin Control: Percent of Control Value” in data set [2] is 95.2%. For the same substance, in data set [3], the “% Remaining at Each Time Point: 0 min” value was 100%; the fraction remaining at 0.25 h, 10 uM was found to be 85.7%; the share remaining at 0.5 h, 10 uM was 79.5%; the share remaining at 1 h, 10 uM came to 61.9%. Moreover, in data set [3], the share remaining at 2 h, 10 uM was found to be 35.4% and the fraction remaining at 3 h, 10 uM came out at 23%. Also, in data set [4], the “% Remaining at Each Time Point: 0 min” value came to 100%; the share remaining at 1 h, 10 uM is 105%; the share remaining at 2 h, 10 uM was found to be 87.9%; the amount remaining at 3 h, 10 uM is 77.9%. In addition, in data set [5], the “% Remaining at Each Time Point: 0 min” value came to 100%; the share remaining at 1 h, 10 uM was 106%; the fraction remaining at 2 h, 10 uM worked out at 90.8%; the amount remaining at 3 h, 10 uM was determined as 95.8%.

For the substance H-RWQEMQYIFYPR-OH [compound 211], the “Free Fatty Acid Levels in 3T3-L1 Adipocytes Expressed as a Percent of Isoproterenol Control: Percent of Control Value” in data set [1] stood at 29.9%. For the same substance, the “Free Fatty Acid Levels in Human Primary Adipocytes Expressed as a Percent of Forskolin Control: Percent of Control Value” in data set [2] stood at 90.1%. In data set [3], the “% Remaining at Each Time Point: 0 min” value is reported as 100%; the amount remaining at 0.25 h, 10 uM is 85.2%; the share remaining at 0.5 h, 10 uM was found to be 72.8%; the fraction remaining at 1 h, 10 uM was 52.3%. Also, in data set [3], the share remaining at 2 h, 10 uM was determined as 30.3% and the fraction remaining at 3 h, 10 uM was 17.9%.

Insulin [reference compound]: the “Free fatty acid levels, % of the isoproterenol control value” in data set [1] (insulin 100 nM, 3T3-L1 adipocytes) is recorded as less than 5%; in data set [6], less than 5%. For the same substance, in data set [2] (insulin 100 nM, human primary adipocytes), the “Free fatty acid levels, % of the forskolin control value” is less than 8%.
